One may read the melting point as the temperature, or range, at which the solid turns liquid. What is called boiling point is the temperature at which the vapour pressure of the liquid equals the pressure above it. A word on the logP: it is the decadic logarithm of the partition coefficient of the neutral form, usually between octanol and water. A high value points to higher lipophilicity.

With `CCC1C(C)=NN=C(c2ccc(OC)c(OC)c2)c2cc(OC)c(OC)cc21` (centres undefined), the melting point is 156 °C. As for `CC(O)COCc1c(Cl)ccc(Cl)c1Cl` (centres undefined), the log10 vapour pressure (mmHg) was -4. As for `COc1cc2ccc(=O)oc2cc1OC`, the melting point amounted to 146 °C. Take `COC(=O)c1ccccc1CS(=O)(=O)NC(=O)Nc1nc(OC)cc(OC)n1`: the log10 Koc (L/kg) stood at 2.5, the log10 vapour pressure (mmHg) was -13.7 and the melting point came to 187 °C. The compound `C/C=C/CO` returned a boiling point of 121 °C.

Compound `O=C(O)C(Cc1cc(I)c(O)c(I)c1)c1ccccc1` (centres undefined) came in with a melting point of 164 °C. Regarding `CC(O)COc1ccccc1` (centres undefined), the boiling point amounted to 243 °C. Consider `Cc1ccccc1CCO`, for which the boiling point is 244 °C and the melting point worked out at 2 °C. `Cc1cnc(C)c(C)c1` showed a boiling point of 184 °C. As to `CC(=O)C1=CCCCC1`, the boiling point amounted to 202 °C and the melting point was determined as 73 °C. With `O=C=Nc1ccc(-c2ccccc2)cc1`, the boiling point amounted to 283 °C and the melting point is 56 °C. As to `CCCCNC(=O)OCC(C)(CCC)COC(N)=O` (centres undefined), the melting point was 50 °C. Compound `Cc1c(C)c([N+](=O)[O-])c(C(C)(C)C)c([N+](=O)[O-])c1C` displayed a melting point of 136 °C. As to `ClC(Cl)C(Cl)(Cl)C(Cl)Cl`, the boiling point was determined as 218 °C. In the case of `CCOC(=O)Cc1cccc2ccccc12`, the log10 Koc (L/kg) came out at 2.48 and the melting point was 88.5 °C. With `CCCCOC(=O)COc1cc(Cl)c(Cl)cc1Cl`, the log10 vapour pressure (mmHg) was -4.82 and the melting point is 28.5 °C. `COCBr` yielded a boiling point of 87 °C. Compound `Cc1ccccc1C` showed a boiling point of 144 °C, a log10 Henry constant (atm·m³/mol) of -2.29, a log10 Koa of 3.91 and a log10 Koc (L/kg) of 2.25. Also, the log10 biodegradation half-life (days) is 0.778, the log10 vapour pressure (mmHg) was determined as 0.82, the melting point is -25.2 °C and the ready biodegradability entry was “readily biodegradable”. In turn, `O=C(O)C=Cc1cccc(C(F)(F)F)c1` had a melting point of 136 °C.

With `COc1cc(Cl)cc(OC)c1`, the boiling point came out at 234 °C and the melting point was 35 °C. The compound `CO[C@H]1O[C@H](CNC(=O)N(CCCl)N=O)[C@@H](O)[C@H](O)[C@H]1O` displayed a melting point of 111 °C. Still for that read-out and setting: under `CCN(CC)C(C)CN1c2ccccc2Sc2ccccc21` (centres undefined) stands 64.5 °C. `CCCCCC(C)(C)C` had a boiling point of 133 °C, a log10 biodegradation half-life (days) of 0.778, a log10 vapour pressure (mmHg) of 1.03 and a melting point of -113 °C. `O=C1C(Cl)=CC(=NCl)C=C1Cl` showed a melting point of 66 °C. With `C=CC(=O)OCCn1c(=O)n(CCOC(=O)C=C)c(=O)n(CCOC(=O)C=C)c1=O`, the ready biodegradability entry was “not readily biodegradable”. As for `Cc1ccc(C)c(C(C)c2ccccc2)c1` (centres undefined), the ready biodegradability entry is listed as “not readily biodegradable”. `COc1ccc2c(c1)c(CC(=O)O)c(C)n2C(=O)/C=C/c1ccccc1` registered a melting point of 170 °C. In the case of `CCCCCCCCCCCCOP(=O)(O)O`, the ready biodegradability result is listed as “readily biodegradable”. As for `CCN(N)c1ccccc1`, the boiling point is 237 °C. In turn, `Brc1ccc(Oc2cc(Br)c(Br)cc2Br)c(Br)c1` came in with a log10 Koa of 11.3, a log10 vapour pressure (mmHg) of -7.51 and a logP of 7.32.

On to `O=C1CCCCCCC1`, for which the boiling point came out at 196 °C, the log10 vapour pressure (mmHg) is -0.389 and the melting point worked out at 29 °C. Consider `CCCCCBr`, for which the boiling point worked out at 130 °C, the log10 vapour pressure (mmHg) is 1.1, the melting point is -95 °C and the ready biodegradability result is recorded as “not readily biodegradable”.

As for `Cc1ccc([C@H](C)O)cc1`, the boiling point was 219 °C.

For the compound `CCCCCCN(C)C(=O)COC(=O)c1ccccc1`, the melting point was determined as 100 °C. Compound `CCOC(=O)CI` yielded a boiling point of 179 °C and a log10 vapour pressure (mmHg) of -0.195. Regarding `CCCCNCCCC`, the boiling point was found to be 160 °C, the log10 Henry constant (atm·m³/mol) was -4.05, the log10 vapour pressure (mmHg) was 0.413 and the melting point was -62 °C. In addition, the ready biodegradability entry is on record as “readily biodegradable”. Regarding `CC1=CC2CC1C1C(=O)OC(=O)C21` (centres undefined), the ready biodegradability result is “not readily biodegradable”. In the case of `COc1cc([C@@H]2c3cc4c(c(O)c3C[C@H]3COC(=O)[C@@H]32)OCO4)cc(OC)c1OC`, the melting point came to 234 °C. Compound `NCCO.O=C(Nc1ccc([N+](=O)[O-])cc1Cl)c1cc(Cl)ccc1O` came in with a melting point of 216 °C. In turn, `Cc1cc(Cl)nc(Cl)n1` came in with a boiling point of 219 °C and a melting point of 46.5 °C.

Take `CCN(CC)CCOc1ccc2nc(N(C)C)sc2c1.Cl.Cl`: the melting point was found to be 242 °C. As for `c1ccc2c(c1)cc1ccc3cccc4ccc2c1c34`, the boiling point stood at 495 °C, the log10 Henry constant (atm·m³/mol) is -6.34, the log10 Koc (L/kg) was 5.95 and the log10 biodegradation half-life (days) worked out at 2.35. This compound also gave a log10 vapour pressure (mmHg) of -8.26 and a melting point of 176 °C. In turn, `CCN(CC)c1cccc(C)c1` showed a boiling point of 232 °C.

`Nc1ccc([N+](=O)[O-])cc1Cl`: the log10 Henry constant (atm·m³/mol) was -8.02, the melting point worked out at 108 °C and the ready biodegradability result is on record as “not readily biodegradable”. `O=C(Cl)c1ccccc1F` yielded a boiling point of 206 °C and a melting point of 4 °C. `N#CC(Br)c1ccccc1` (centres undefined) registered a melting point of 29 °C. As to `CC(Oc1ccc(Oc2cnc3cc(Cl)ccc3n2)cc1)C(=O)OCC1CCCO1` (centres undefined), the melting point came out at 64 °C. With `Clc1cc2c(Cl)c(Cl)c(Cl)cc2c(Cl)c1Cl`, the log10 Koa was 9.58 and the log10 vapour pressure (mmHg) was -6.46. In the case of `CC(=O)CCC(=O)OCC(C)C`, the boiling point came to 228 °C.

Take `OCc1ccco1`: the boiling point came out at 171 °C, the log10 vapour pressure (mmHg) was -0.215, the melting point is -14.6 °C and the ready biodegradability result is reported as “readily biodegradable”. `CCC(CC)C(=O)O`: the boiling point was determined as 194 °C, the log10 vapour pressure (mmHg) was -0.726, the melting point is -31.8 °C and the ready biodegradability result is on record as “readily biodegradable”. With `Fc1cccc(F)c1-c1nnc(-c2ccccc2Cl)nn1`, the melting point was determined as 188 °C. `Oc1c(Cl)cc(Cl)cc1Br` displayed a melting point of 68 °C.

The values above are taken from the OPERA property sets (Mansouri et al. 2018).
